Article PMC12394665, “Structural and biochemical basis for activity of Aspergillus nidulans α-1,3-glucanases from glycoside hydrolase family 71” (Communications Biology, 2025)

Experiments:
[1] = target: T1, AnGH71C (Aspergillus nidulans, UniProt G5EB58); test: X-ray crystal structure (soak), […] Å; type: binding
T1 construct: gene ANIA_07349; putative signal peptide removed; N-terminal His6 tag, modified pET-28a with TEV site; recombinant E. coli BL21 (DE3); IMAC and gel filtration
T1 sequence (G5EB58 23-431): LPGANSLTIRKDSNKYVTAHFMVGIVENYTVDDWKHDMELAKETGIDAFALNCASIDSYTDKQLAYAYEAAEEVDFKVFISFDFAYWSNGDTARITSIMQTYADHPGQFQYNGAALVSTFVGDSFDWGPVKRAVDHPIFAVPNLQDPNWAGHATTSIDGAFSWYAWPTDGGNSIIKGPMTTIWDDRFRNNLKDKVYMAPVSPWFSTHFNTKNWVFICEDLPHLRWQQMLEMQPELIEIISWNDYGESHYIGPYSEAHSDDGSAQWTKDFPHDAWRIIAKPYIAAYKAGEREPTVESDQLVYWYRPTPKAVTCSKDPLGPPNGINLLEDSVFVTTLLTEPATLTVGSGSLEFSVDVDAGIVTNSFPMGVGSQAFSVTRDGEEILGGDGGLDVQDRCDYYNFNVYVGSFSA

[2] = target: T1, AnGH71C; test: X-ray crystal structure (soak), […] Å; conditions: crystal soaked 2 min with saturating ligand; two glucose molecules in the binding cleft per protein molecule

OC[C@H]1O[C@H](O[C@@H]2[C@@H](O)[C@@H](O[C@H]3[C@H](O)[C@@H](CO)OC(O)[C@@H]3O)O[C@H](CO)[C@H]2O)[C@H](O)[C@@H](O)[C@@H]1O (stereo partly drawn) [nigerotriose]
X-ray crystal structure (soak), 1.92 Å ([1]; crystal soaked with nigerotetraose, nigerotriose in active-site cleft subsites, one extra on cleft surface in chain B): four protein molecules of the nigerotetraose-soaked crystals contain distinct combinations of nigerotriose and nigerotetraose

OC[C@H]1OC(O)[C@H](O)[C@@H](O)[C@@H]1O (stereo partly drawn) [glucose]
X-ray crystal structure (soak), 1.37 Å [2]: glucose-soaked crystals each contain two glucose molecules located in the same position

OC[C@H]1O[C@H](O[C@@H]2[C@@H](O)[C@@H](O[C@@H]3[C@@H](O)[C@@H](O[C@H]4[C@H](O)[C@@H](CO)OC(O)[C@@H]4O)O[C@H](CO)[C@H]3O)O[C@H](CO)[C@H]2O)[C@H](O)[C@@H](O)[C@@H]1O (stereo partly drawn) [nigerotetraose]
X-ray crystal structure (soak), 1.92 Å ([1]; crystal soaked 2 min with saturating ligand, active-site cleft, -4 to -1 subsites among others, α- and β-anomers): Complexes of AnGH71C with glucose and nigerotriose/nigerotetraose were obtained by soaking crystals with ligand
